Legend:
[1] = Flow characterization of dry powders and granulations (density, Carr, Hausner, Flodex); format: physicochemical; conditions: ungranulated, no water
Excerpt: The flow of dry powders was characterized using a FLODEX™ Powder Flowability Index Test Instrument (Hanson Research Corporation, Chatsworth, Calif.). The instrument was equipped with a cylindrical metal reservoir, which holds the test powder prior to flow testing. The cylindrical reservoir has an inside diameter of 5.7 cm and a length of […]. The bottom end of the reservoir can be closed with removable metal discs. Each disc has a round orifice centered in the disc. Orifice diameters range from 4 mm to 10 mm in 1 mm increments, and from 10 mm to 34 mm in 2 mm increments. Prior to flow testing, the orifice is blocked. Powder is then placed over the blocked orifice. When the orifice is unblocked, powder can flow through the orifice under the force of gravity if the orifice diameter is sufficiently large. Powder that flows through small orifices is considered to have flow properties useful for tableting. For example, a Flodex measurement (Flodex) of less than about 24 mm is typically used for high-speed tableting operations at commercial scale. A Flodex less than about 20 mm is useful for high-speed tableting operations. A Flodex of 18 mm or less is considered especially useful for high throughput tableting operations.
The Flodex is determined by first gently filling the reservoir while the orifice at the bottom is blocked with approximately 70 cc of test powder, while avoiding severe piling, and without vibrating or tapping the powder bed. Next, the orifice is unblocked. This can be accomplished by opening a shutter that is supplied with the instrument. Alternatively, if a shutter is not used, the powder-filled reservoir fitted with a disc can be set on a dry, flat surface to block the orifice. Then, slowly and evenly, the reservoir is lifted to allow the powders to flow. In either procedure, if the powder flows through the orifice, a clear channel is left within the powder bed. […] The flow test is conducted with various orifice sizes until the minimum orifice size for good flow is identified, which is referred to as the Flodex.
The impact of the amount of water used during high shear wet granulation on the strength of granules was determined. Granulations containing either 98 wt-% compound (1), 1 wt-% METHOCELT™-E4M and 1 wt-% SLS, or 97 wt-% compound (1) and 3 wt-% METHOCEL™-E4M, were prepared using from 20 wt-% to 30 wt-% water, dried, and the granule strength measured by determining the air pressure at which the particles began to fracture using a Sympatec particle analyzer (QicPic/RODOS-L/VIBRI-L, Sympatec GmbH, Clausthal-Zellerfeld, DE).
The Main Blend contained 98 wt-% compound (1), 1 wt-% METHOCELT™-E4M, and 1 wt-% SLS. Blend D contained 90 wt-% granules blended with 8 wt-% METHOCEL™-K100M and 2 wt-% magnesium stearate, and Blend E contained 89 wt-% granules blended with 8 wt-% METHOCEL™-K100M and 3 wt-% magnesium stearate and were prepared as described in Example 4.

[2] = dosed either orally or directly into the colon of a mammal; cited from earlier work

- Bulk Density [1]: 0.329 gm/mL
- Carr Index [1]: 27.0
- Flodex [1]: >34 mm
- Hausner Ratio [1]: 1.37
- Tap Density [1]: 0.450 gm/mL
SMILES: CC(OC(=O)NCC1(CC(=O)O)CCCCC1)OC(=O)C(C)C (stereo not drawn) [Compound (1), 1-([(α-Isobutanoyloxyethoxy)carbonyl]aminomethyl)-1-cyclohexane acetic acid]
- bioavailability as gabapentin [2]: high bioavailability as gabapentin

From patent publication US20100226981A1, “ORAL DOSAGE FORMS HAVING A HIGH LOADING OF A GABAPENTIN PRODRUG” (XenoPort, Inc., priority 2009, published 2010)
